Laboratory results as given in publication PMC6797481, “Identification of an allosteric binding site on the human glycine transporter, GlyT2, for bioactive lipid analgesics” (eLife, 2019).
Changes are numbered by the printed parent chain.

Key:
GlyT1 WT = system: GlyT1 WT; design: method as in earlier work; details: previously published; cited from earlier work
GlyT2 F428A mutant = biological target: T1, GlyT2 F428A mutant (Homo sapiens, UniProt Q9Y345, F428A); assay: Glycine transport currents, two electrode voltage clamp, oocytes expressing GlyT2 F428A; format: cell-based; details: GlyT2 F428A; mean ± SEM
T1 construct: expressed in transfected cells; host or cells: Xenopus laevis oocytes (cRNA injection)
T1 sequence (Q9Y345 1-797 F428A): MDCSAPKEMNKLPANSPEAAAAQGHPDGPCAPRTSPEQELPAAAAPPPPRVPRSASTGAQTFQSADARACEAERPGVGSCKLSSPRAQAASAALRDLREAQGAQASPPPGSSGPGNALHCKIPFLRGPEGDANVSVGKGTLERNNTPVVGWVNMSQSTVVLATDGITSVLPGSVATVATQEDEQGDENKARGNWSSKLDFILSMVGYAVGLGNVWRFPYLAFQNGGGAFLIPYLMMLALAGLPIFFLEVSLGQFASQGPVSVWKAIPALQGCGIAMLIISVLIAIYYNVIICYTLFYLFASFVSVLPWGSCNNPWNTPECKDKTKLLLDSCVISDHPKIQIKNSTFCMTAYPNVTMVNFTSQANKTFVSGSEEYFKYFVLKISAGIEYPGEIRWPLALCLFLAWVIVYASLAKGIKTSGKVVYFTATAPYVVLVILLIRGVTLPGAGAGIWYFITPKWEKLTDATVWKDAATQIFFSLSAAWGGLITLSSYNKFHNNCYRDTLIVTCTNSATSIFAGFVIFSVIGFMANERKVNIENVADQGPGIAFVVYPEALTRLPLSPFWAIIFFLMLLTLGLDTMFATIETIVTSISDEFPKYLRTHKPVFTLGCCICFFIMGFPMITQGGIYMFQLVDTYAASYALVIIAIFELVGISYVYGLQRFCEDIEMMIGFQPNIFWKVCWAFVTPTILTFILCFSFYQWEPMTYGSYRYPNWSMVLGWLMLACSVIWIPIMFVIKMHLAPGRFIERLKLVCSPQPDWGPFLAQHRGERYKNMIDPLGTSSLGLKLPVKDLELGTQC
Experimental: (§1) Glycine was first applied to establish maximal transport current.
(§2) Compounds were tested for inhibition of glycine transport on Xenopus laevis oocytes expressing mutant GlyT1 and GlyT2 transporters. n values are in brackets, with measurements taken from at least 2 batches of oocytes.

GlyT2 WT = biological target: T2, GlyT2 WT (Homo sapiens, UniProt Q9Y345); design: expressed in transfected cells; host or cells: Xenopus laevis oocytes (cRNA injection); details: WT GlyT2, previously published, cited from earlier work; for IC50: mean (95% CI); for GlyT2 % max. inhibition: mean ± SEM
T2 sequence (Q9Y345 1-797): T1 sequence (Q9Y345 1-797 F428A) with A428F

GlyT2 V432A mutant = biological target: T3, GlyT2 V432A mutant (Homo sapiens, UniProt Q9Y345, V432A); assay: Glycine transport currents, two electrode voltage clamp, oocytes expressing GlyT2 V432A; format: cell-based; details: GlyT2 V432A; for IC50: greater than maximum concentration applied (footnote a)
T3 construct: expressed in transfected cells; host or cells: Xenopus laevis oocytes (cRNA injection)
T3 sequence (Q9Y345 1-797 V432A): T1 sequence (Q9Y345 1-797 F428A) with A428F, V432A
Experimental: as §1, §2

GlyT2 P561S mutant = biological target: T4, GlyT2 P561S mutant (Homo sapiens, UniProt Q9Y345, P561S); assay: Glycine transport currents, two electrode voltage clamp, oocytes expressing GlyT2 P561S; format: cell-based; details: GlyT2 P561S
T4 construct: expressed in transfected cells; host or cells: Xenopus laevis oocytes (cRNA injection)
T4 sequence (Q9Y345 1-797 P561S): T1 sequence (Q9Y345 1-797 F428A) with A428F, P561S
Experimental: as §1, §2

GlyT2 W563L mutant = biological target: T5, GlyT2 W563L mutant (Homo sapiens, UniProt Q9Y345, W563L); assay: Glycine transport currents, two electrode voltage clamp, oocytes expressing GlyT2 W563L; format: cell-based; details: GlyT2 W563L
T5 construct: expressed in transfected cells; host or cells: Xenopus laevis oocytes (cRNA injection)
T5 sequence (Q9Y345 1-797 W563L): T1 sequence (Q9Y345 1-797 F428A) with A428F, W563L
Experimental: as §1, §2

GlyT2 Y550L mutant = biological target: T6, GlyT2 Y550L mutant (Homo sapiens, UniProt Q9Y345, Y550L); assay: Glycine transport currents, two electrode voltage clamp, oocytes expressing GlyT2 Y550L; format: cell-based; details: GlyT2 Y550L
T6 construct: expressed in transfected cells; host or cells: Xenopus laevis oocytes (cRNA injection)
T6 sequence (Q9Y345 1-797 Y550L): T1 sequence (Q9Y345 1-797 F428A) with A428F, Y550L
Experimental: as §1, §2

CCCCCC/C=C\CCCCCCCC(=O)NCC(=O)O [C16 ω7 Glycine]
IC50 (GlyT1 WT): > 10000 nM
% Max. inhibition (GlyT2 F428A mutant): 56.5%
IC50 (GlyT2 WT): 1500 nM
GlyT2 % max. inhibition (GlyT2 WT): 92.5 ± 1.6%
% Max. inhibition (% inhibition at the highest concentration of inhibitor used) (GlyT2 V432A mutant; footnote b): 44.2 ± 6.3^b (p=0.0009) %
IC50 (GlyT2 V432A mutant): > 10000 nM

CCCCCCCC/C=C\CCCCCCCC(=O)N[C@@H](CO)C(=O)O [oleoyl l-Serine]
IC50 (GlyT2 P561S mutant; mean (95% CI)): 580 nM
% Max. inhibition (GlyT2 P561S mutant; mean ± SEM): 80.3 ± 7.3 (p=0.7241) %
IC50 (GlyT2 W563L mutant; mean (95% CI)): 661 nM
% Max. inhibition (GlyT2 W563L mutant; mean ± SEM): 62.3 ± 5.3 (p=0.3662) %
IC50 (GlyT1 WT): > 3000 nM
GlyT2 % max. inhibition (GlyT2 WT): 73.1 ± 5.1%
IC50 (GlyT2 Y550L mutant; greater than maximum concentration applied (footnote a)): > 3000 nM
% Max. inhibition (GlyT2 Y550L mutant; mean ± SEM): 11.2 ± 1.6 (p=0.0001) %

CCC=CCCCCCCCCCCCC(=O)NCC(=O)O [C16 ω3 Glycine]
IC50 (GlyT1 WT): > 10000 nM
IC50 (GlyT2 WT): 810 nM
GlyT2 % max. inhibition (GlyT2 WT): 65.3 ± 1.9%
IC50 (GlyT2 V432A mutant): > 10000 nM
% Max. inhibition (GlyT2 V432A mutant; mean ± SEM): 1.0 ± 3.0 (p=0.0193) %
